{
  "source": "patent US9925235B2",
  "about": "“Tilapia piscidins for use in enhancement of wound healing” (Academia Sinica, priority 2015, dated 2018)",
  "key": {"MRSA": {"system": "MRSA", "assay": "Mouse wound healing model, wound closure, TP4", "assay_type": "in vivo, Balb/c mice", "conditions": "MRSA-contaminated full-thickness wounds", "method": "Female Balb/c mice (6-8 weeks old) were used for wound healing experiments. All mice were housed individually to prevent fighting and further damage to the wounds, and they were provided with food and water ad libitum. Mice were maintained on a 12 h light: dark cycle at room temperature, and acclimatized to the environment for at least a week before use in experiments. All researchers wore caps, sterile gloves, gowns, and shoe covers when handling mice. Hair was removed from the back of the mice by shaving, and a full thickness wound (1 cm in diameter) was then created in the exposed region. Each wound was inoculated with 50 μl of broth mix containing 10^6 cfu (colony forming units) of S. aureus. At 5 min after inoculation, 50 μl TP4 (2 mg/ml) in a total volume of 0.1 ml were applied. […] Animals were subsequently euthanized by CO2 inhalation and the wounds assessed. […] Each wound was measured and then removed from the animal, with unwounded skin taken from the contralateral dorsum as a control. Each biopsy was divided into six sections, with three sections being used for tensiometry and histology, and three sections for quantitative determination of microbial load. […]\nTracings were taken immediately after injury. For uncontaminated wounds, wound size was determined every second day. […] Wound areas were determined using the Macintosh Adobe Photoshop program, Histogram Analysis. […]"}, "TNF, IL-6, IL-1": {"system": "TNF, IL-6, IL-1", "assay": "ELISA of serum cytokines in MRSA wound-infected mice, TP4", "assay_type": "in vivo", "method": "A skin region of about 1 square centimeter was removed from the abdomen of […] mice, and the wound was infected with […] of broth mix containing 10^6 cfu of MRSA alone, or together with methicillin, vancomycin, or TP4. At different days post-infection: TNF (FIG. 9A), IL-6 (FIG. 9B), and IL-1 (FIG. 9C) were detected in serum by ELISA. (r=3; n=6.) Values with different letters show significant differences (P<0.05), as determined by ANOVA.\nSkin tissues were removed and fixed as previously described. In brief, the cryosections were fixed with 4% formaldehyde, and the tissue samples were stained with VEGF. IHC was analyzed by three independent investigators. Images were taken using a BX-51 microscope (Olympus, Japan). ELISA was performed as previously described."}, "[1]": {"system": "Hs-68 human foreskin fibroblast cell line", "assay_type": "cell-based", "method": "An MRSA strain commonly associated with human wound infections was selected to generate a polymicrobial solution. The MRSA strain is a clinical isolate from stool obtained from Taipei City Hospital (Heping Fuyou branch). The strain was identified by routine laboratory methods and stored in 20% (vol/vol) glycerol at −80° C. Tryptic Soy Broth (TSB) was used as the culture medium. HaCaT human keratinocyte cell line and Hs-68 human foreskin fibroblast cell line were grown in DMEM containing 10% (v/v) FBS, 0.37% (w/v) NaHCO3, penicillin (100 unit/ml), streptomycin (100 μg/ml), 0.1 mM NEAA, and 1 mM sodium pyruvate at 37° C. in a humidified incubator under 5% CO2 and 95% air. The cells were harvested at ca. 90% confluence (ca. 10^6 cells/10-cm dish). Balb/c female mice were used for the experiments. All mice were housed in cages under specific pathogen-free conditions, and given water and standard laboratory chow ad libitum during the experiments. All animal handing procedures were in accordance with National Taiwan Ocean University (NTOU) guidelines. All procedures were approved by the Animal Care and Use Committee of NTOU.\nCells were cultured at a density of 5×10^4 cells per well in flat-bottomed 96-well plates. […] Cell proliferation was measured by neutral red, LDH, and MTT assay, according to the manufacturer's instructions. […]"}, "[2]": {"conditions": "serum, 3 days after treatment, vs positive controls"}},
  "data": [
    {"substance": "Tilapia piscidin 4 (FIHHIIGGLFSAGKAIHRLIRRRRR; listed as Oreochromis niloticus) [TP4]", "values": [
      {"measurement": "day of wound closure", "setting": "MRSA", "value": 21, "unit": "days"},
      {"measurement": "wound closure", "setting": "MRSA", "value": "wound closure was accelerated"},
      {"measurement": "IL-1", "setting": "TNF, IL-6, IL-1; TP4-treated wounds vs control wounds", "value": "statistically significant enhancement"},
      {"measurement": "induction of IL-6", "setting": "TNF, IL-6, IL-1; [2]", "value": "decreased induction"},
      {"measurement": "induction of TNF", "setting": "TNF, IL-6, IL-1; [2]", "value": "decreased induction"},
      {"measurement": "cytotoxic effects", "setting": "[1]", "value": "did not exhibit cytotoxic effects"},
      {"measurement": "cell proliferation", "setting": "[1]; Hs-68 cells, low doses, 48 h", "value": "significantly increased"}
    ]}
  ]
}
